Source: US20080009418A1, “Selective Inhibitors” (Alchemia LTD., priority 2004, published 2008)

Experiments:
Human Melanocortin (MC4) = molecular target: T1, Human Melanocortin (MC4) (Homo sapiens, UniProt P32245); assay: Radioligand binding, human melanocortin MC4 membranes, FlashPlate, [125I]-NDP-αMSH; details: compound at 10 μM, [125I]-NDP-αMSH; for A4: inhibition of radioligand binding: human MC4 membranes
T1 construct: purchased Perkin Elmer Biosignal
Procedure, shortened: (§1)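 Cloned human receptor membranes were coated onto FlashPlate wells and incubated with radioligand and compound (added from a 0.5 mM DMSO daughter plate) for 1 hour at room temperature in the dark. Scintillation counting gave percent inhibition, with DMSO defining total and reference ligand defining non-specific binding.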

Human μ-opioid (MOP) = molecular target: T2, Human μ-opioid (MOP) (Homo sapiens, UniProt P35372); assay: Radioligand binding, human μ-opioid (MOP) membranes, FlashPlate, [3H]-Naloxone; details: compound at 10 μM, [3H]-Naloxone; for A7: inhibition of radioligand binding: human MOP membranes
T2 construct: purchased Perkin Elmer Biosignal
T2 sequence (P35372 whole entry): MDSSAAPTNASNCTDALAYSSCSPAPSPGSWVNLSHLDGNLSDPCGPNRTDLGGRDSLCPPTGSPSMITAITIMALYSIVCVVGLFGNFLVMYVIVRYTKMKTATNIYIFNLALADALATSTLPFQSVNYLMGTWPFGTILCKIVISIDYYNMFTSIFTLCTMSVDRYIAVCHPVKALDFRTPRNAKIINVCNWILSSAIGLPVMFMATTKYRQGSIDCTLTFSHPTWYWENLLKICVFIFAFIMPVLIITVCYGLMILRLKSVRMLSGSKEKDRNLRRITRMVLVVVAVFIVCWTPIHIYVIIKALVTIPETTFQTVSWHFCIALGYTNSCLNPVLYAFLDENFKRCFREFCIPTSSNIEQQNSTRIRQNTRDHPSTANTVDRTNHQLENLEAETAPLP
Procedure, shortened: as §1

Human δ-opioid (DOP) = molecular target: T3, Human δ-opioid (DOP) (Homo sapiens, UniProt P41143); assay: Radioligand binding, human δ-opioid (DOP) membranes, FlashPlate, [3H]-Bremazocine; details: compound at 10 μM, [3H]-Bremazocine; for A1: inhibition of radioligand binding: human DOP membranes
T3 construct: purchased Perkin Elmer Biosignal
T3 sequence (P41143 whole entry): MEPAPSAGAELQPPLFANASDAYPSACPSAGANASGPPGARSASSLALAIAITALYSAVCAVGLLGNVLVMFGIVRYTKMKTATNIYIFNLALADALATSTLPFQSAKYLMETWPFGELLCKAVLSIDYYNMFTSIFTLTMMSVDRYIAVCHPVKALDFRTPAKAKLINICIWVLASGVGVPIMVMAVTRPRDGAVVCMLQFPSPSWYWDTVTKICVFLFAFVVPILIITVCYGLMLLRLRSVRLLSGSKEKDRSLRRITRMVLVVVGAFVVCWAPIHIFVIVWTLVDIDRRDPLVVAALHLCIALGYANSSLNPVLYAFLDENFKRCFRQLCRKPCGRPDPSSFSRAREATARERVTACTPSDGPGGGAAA
Procedure, shortened: as §1

Human neurokinin (NK1) = molecular target: T4, Human neurokinin (NK1) (Homo sapiens, UniProt P25103); assay: Radioligand binding, human neurokinin NK1 membranes, filtration, [125I]-Substance P; details: compound at 10 μM, [125I]-Substance P; for A8: inhibition of radioligand binding: human NK1 membranes
T4 construct: purchased Perkin Elmer Biosignal
T4 sequence (P25103 whole entry): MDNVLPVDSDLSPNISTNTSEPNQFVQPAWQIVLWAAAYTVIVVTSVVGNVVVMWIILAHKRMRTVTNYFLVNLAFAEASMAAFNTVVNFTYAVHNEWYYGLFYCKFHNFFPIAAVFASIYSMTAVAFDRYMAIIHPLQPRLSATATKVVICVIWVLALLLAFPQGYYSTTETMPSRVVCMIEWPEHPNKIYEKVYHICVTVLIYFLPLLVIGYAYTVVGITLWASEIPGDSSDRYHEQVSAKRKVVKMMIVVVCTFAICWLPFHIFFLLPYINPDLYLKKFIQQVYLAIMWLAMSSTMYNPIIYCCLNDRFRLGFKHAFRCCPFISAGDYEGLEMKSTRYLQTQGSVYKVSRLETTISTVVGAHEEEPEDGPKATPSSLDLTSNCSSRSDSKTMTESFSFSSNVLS
Procedure, shortened: (§2)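 Percent inhibition of radioligand binding measured on recombinant human membranes: NK1 with [125I]-Substance P, KOP with [3H]-Diprenorphine. Incubation 1 h at room temperature, then harvest onto 0.3% PEI-soaked filters, cold Tris-HCl pH 7.4 washes and scintillation counting; non-specific binding from reference ligand wells.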

Human Melanocortin (MC3) = molecular target: T5, Human Melanocortin (MC3) (Homo sapiens, UniProt P41968); assay: Radioligand binding, human melanocortin MC3 membranes, FlashPlate, [125I]-NDP-αMSH; details: compound at 10 μM, [125I]-NDP-αMSH; for A3: inhibition of radioligand binding: human MC3 membranes
T5 construct: purchased Perkin Elmer Biosignal
T5 sequence (P41968 whole entry): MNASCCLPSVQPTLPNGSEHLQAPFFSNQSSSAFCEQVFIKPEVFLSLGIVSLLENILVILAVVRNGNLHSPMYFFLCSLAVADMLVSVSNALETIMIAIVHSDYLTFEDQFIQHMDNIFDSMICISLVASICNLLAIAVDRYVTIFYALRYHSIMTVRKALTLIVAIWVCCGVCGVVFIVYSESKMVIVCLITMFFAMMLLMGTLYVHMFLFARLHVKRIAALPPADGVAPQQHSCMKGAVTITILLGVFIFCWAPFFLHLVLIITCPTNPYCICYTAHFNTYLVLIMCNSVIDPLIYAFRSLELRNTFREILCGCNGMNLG
Procedure, shortened: as §1

[1] = molecular target: T6, Human neuropeptide Y (NPY-Y1) (Homo sapiens, UniProt P25929); assay: Radioligand binding, human neuropeptide Y NPY-Y1 membranes, FlashPlate, [125I]-PYY; details: compound at 10 μM, [125I]-PYY; for A9: inhibition of radioligand binding: human NPY-Y1 membranes
T6 construct: purchased Perkin Elmer Biosignal
T6 sequence (P25929 1-384): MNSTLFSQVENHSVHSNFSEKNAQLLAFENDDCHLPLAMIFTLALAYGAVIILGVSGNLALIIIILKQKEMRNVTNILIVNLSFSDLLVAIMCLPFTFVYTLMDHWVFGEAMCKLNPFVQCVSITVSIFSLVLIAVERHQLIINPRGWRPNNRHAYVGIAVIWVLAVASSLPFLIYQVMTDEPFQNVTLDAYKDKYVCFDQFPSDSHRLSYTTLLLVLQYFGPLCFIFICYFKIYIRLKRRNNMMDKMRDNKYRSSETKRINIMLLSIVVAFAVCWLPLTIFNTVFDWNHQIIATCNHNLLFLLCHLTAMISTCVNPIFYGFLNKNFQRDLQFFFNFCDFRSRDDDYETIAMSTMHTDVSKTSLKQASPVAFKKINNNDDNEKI
Procedure, shortened: as §1

Mouse urotensin (mUR2) = molecular target: T7, Mouse urotensin (mUR2) (Mus musculus, UniProt Q8VIH9); assay: Radioligand binding, mouse urotensin mUR2 membranes, FlashPlate, [125I]-Urotensin II; details: compound at 10 μM, [125I]-Urotensin II; for A11: inhibition of radioligand binding: mouse mUR2 membranes
T7 construct: purchased Perkin Elmer Biosignal
T7 sequence (Q8VIH9 1-385): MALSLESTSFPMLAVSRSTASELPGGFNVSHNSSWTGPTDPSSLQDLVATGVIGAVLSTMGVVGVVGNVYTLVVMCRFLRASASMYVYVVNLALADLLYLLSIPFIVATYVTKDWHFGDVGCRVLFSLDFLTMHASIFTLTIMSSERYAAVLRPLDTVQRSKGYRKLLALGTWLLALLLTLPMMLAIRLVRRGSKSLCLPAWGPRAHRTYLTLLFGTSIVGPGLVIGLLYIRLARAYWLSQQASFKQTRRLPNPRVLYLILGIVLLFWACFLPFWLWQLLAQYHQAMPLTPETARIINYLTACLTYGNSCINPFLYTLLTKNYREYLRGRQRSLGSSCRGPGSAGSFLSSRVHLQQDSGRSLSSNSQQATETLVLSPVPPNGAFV
Procedure, shortened: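 Cloned mouse urotensin (mUR2) receptor membranes from Perkin Elmer Biosignal were immobilized in FlashPlate microplates using a proprietary coating. Each well got 19.5 μl buffer, then 0.5 μl of DMSO, reference ligand, or compound. Adding 5 μl of [125I]-Urotensin II, diluted to 5× final concentration in binding buffer, started binding. Plates were sealed with TopSeal-A and incubated 1 hour at room temperature in the dark. Wells were counted for 30 seconds each on a TopCount after a 60-second delay, and percentage inhibition was calculated.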

Human κ-Opioid (KOP) = molecular target: T8, Human κ-Opioid (KOP) (Homo sapiens, UniProt P41145); assay: Radioligand binding, human κ-opioid (KOP) membranes, filtration, [3H]-Diprenorphine; details: compound at 10 μM, [3H]-Diprenorphine; for A2: inhibition of radioligand binding: human KOP membranes
T8 construct: purchased Perkin Elmer Biosignal
T8 sequence (P41145 whole entry): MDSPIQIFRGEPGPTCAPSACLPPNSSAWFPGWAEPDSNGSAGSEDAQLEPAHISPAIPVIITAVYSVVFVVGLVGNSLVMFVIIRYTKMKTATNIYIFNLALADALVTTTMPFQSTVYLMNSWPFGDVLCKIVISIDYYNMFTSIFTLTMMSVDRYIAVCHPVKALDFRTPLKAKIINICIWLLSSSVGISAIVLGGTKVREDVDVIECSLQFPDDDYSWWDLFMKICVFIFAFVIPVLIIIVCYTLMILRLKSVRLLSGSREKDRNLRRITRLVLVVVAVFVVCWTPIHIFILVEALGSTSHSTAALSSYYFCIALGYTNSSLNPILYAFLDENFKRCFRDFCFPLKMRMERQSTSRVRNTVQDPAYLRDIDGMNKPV
Procedure, shortened: as §2

[2] = molecular target: T9, Human melanin-concentrating hormone (MCH1) (Homo sapiens, UniProt Q99705); assay: Radioligand binding, human melanin-concentrating hormone MCH1 membranes, FlashPlate, [125I]-S36057; details: compound at 10 μM; for A6: inhibition of radioligand binding: [125I]-S36057, human MCH1 membranes
T9 construct: purchased Perkin Elmer Biosignal
T9 sequence (Q99705 whole entry): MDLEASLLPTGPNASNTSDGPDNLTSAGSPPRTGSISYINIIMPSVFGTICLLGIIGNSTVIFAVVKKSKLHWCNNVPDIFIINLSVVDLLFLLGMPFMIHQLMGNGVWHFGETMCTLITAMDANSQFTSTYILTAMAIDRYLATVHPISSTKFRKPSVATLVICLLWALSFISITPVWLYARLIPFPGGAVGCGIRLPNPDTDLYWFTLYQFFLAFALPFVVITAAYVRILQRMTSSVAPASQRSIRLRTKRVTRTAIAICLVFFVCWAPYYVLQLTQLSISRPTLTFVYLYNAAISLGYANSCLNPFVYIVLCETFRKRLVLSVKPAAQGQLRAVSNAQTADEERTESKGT
Procedure, shortened: as §1

Human opioid (ORL1) = molecular target: T10, Human opioid (ORL1) (Homo sapiens, UniProt P41146); assay: Radioligand binding, human opioid ORL1 membranes, FlashPlate, [125I]-Nociceptin; details: compound at 10 μM, [125I]-Nociceptin; for A10: inhibition of radioligand binding: human ORL1 membranes
T10 construct: purchased Perkin Elmer Biosignal
T10 sequence (P41146 whole entry): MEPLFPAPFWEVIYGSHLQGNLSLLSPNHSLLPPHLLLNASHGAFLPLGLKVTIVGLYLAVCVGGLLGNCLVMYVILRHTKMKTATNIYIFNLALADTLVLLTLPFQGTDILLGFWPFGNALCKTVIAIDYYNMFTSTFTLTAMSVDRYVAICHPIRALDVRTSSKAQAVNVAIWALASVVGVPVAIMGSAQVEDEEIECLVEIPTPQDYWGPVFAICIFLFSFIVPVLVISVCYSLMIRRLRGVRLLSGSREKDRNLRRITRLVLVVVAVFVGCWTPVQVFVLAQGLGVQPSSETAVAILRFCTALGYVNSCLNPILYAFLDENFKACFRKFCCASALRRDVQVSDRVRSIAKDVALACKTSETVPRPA
Procedure, shortened: as §1

Human melanocortin (MC5) = molecular target: T11, Human melanocortin (MC5) (Homo sapiens, UniProt P33032); assay: Radioligand binding, human melanocortin MC5 membranes, FlashPlate, [125I]-NDP-αMSH; details: compound at 10 μM, [125I]-NDP-αMSH; for A5: inhibition of radioligand binding: human MC5 membranes
T11 construct: purchased Perkin Elmer Biosignal
T11 sequence (P33032 whole entry): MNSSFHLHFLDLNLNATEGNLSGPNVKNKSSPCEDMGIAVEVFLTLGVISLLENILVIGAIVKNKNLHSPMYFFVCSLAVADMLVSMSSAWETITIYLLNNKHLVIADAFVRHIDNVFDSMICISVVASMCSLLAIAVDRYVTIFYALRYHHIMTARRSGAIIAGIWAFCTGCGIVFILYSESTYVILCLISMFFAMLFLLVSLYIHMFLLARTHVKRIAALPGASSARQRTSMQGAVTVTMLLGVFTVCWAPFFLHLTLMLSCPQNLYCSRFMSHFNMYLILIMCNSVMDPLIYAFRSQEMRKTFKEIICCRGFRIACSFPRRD
Procedure, shortened: as §1

T1 sequence (P32245 whole entry): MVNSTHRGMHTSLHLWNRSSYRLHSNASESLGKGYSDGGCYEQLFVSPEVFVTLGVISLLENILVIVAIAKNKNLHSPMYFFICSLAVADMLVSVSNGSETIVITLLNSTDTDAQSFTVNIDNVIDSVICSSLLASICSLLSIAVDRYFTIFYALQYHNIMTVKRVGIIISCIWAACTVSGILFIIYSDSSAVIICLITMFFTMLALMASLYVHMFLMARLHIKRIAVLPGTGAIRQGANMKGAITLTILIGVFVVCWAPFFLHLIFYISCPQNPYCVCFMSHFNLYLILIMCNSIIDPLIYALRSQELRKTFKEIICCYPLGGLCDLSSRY

Row | SMILES | A1: inhibition of radioligand binding (Human δ-opioid (DOP)) | A8: inhibition of radioligand binding (Human neurokinin (NK1)) | A9: inhibition of radioligand binding [1] | A11: inhibition of radioligand binding (Mouse urotensin (mUR2)) | A2: inhibition of radioligand binding (Human κ-Opioid (KOP)) | A5: inhibition of radioligand binding (Human melanocortin (MC5)) | A7: inhibition of radioligand binding, human μ-opioid (MOP) (Human μ-opioid (MOP)) | A1: inhibition of radioligand binding, human δ-opioid (DOP) (Human δ-opioid (DOP)) | A8: inhibition of radioligand binding, human neurokinin (NK1) (Human neurokinin (NK1)) | A9: inhibition of radioligand binding, human neuropeptide Y (NPY-Y1) [1] | A11: inhibition of radioligand binding, mouse urotensin (mUR2) (Mouse urotensin (mUR2)) | A6: inhibition of radioligand binding, human melanin-concentrating hormone (MCH1) ([2]; [125I]-S36057) | A10: inhibition of radioligand binding, human opioid (ORL1) (Human opioid (ORL1)) | A5: inhibition of radioligand binding, human melanocortin (MC5) (Human melanocortin (MC5)) | also measured
1 | N=C(N)NCCC(=O)NC1C(OCc2ccc(-c3ccccc3)cc2)OC(COCc2ccc(Cl)cc2)C(O)C1OCc1ccc(Cl)cc1 (stereo not shown) [compound 410] | − (“−” indicates less than 50% inhibition at 10 μM) | + (“+” indicates greater than 50% inhibition at 10 μM) | − (“−” indicates less than 50% inhibition at 10 μM) | − (“−” indicates less than 50% inhibition at 10 μM) | − (“−” indicates less than 50% inhibition at 10 μM) | + (“+” indicates greater than 50% inhibition at 10 μM) |  |  |  |  |  |  |  |  | A4: inhibition of radioligand binding (Human Melanocortin (MC4)): + (“+” indicates greater than 50% inhibition at 10 μM); A7: inhibition of radioligand binding (Human μ-opioid (MOP)): − (“−” indicates less than 50% inhibition at 10 μM); A3: inhibition of radioligand binding (Human Melanocortin (MC3)): + (“+” indicates greater than 50% inhibition at 10 μM); A6: inhibition of radioligand binding [2]: + (“+” indicates greater than 50% inhibition at 10 μM); A10: inhibition of radioligand binding (Human opioid (ORL1)): + (“+” indicates greater than 50% inhibition at 10 μM)
2 | CSC1OC(COCc2ccccc2)C(O)C(OCc2ccc3ccccc3c2)C1NC(=O)CNC(=N)N (stereo not shown) [compound 302] |  |  |  |  |  |  | − (“−” indicates less than 50% inhibition at 10 μM) | − (“−” indicates less than 50% inhibition at 10 μM) | + (“+” indicates greater than 50% inhibition at 10 μM) | − (“−” indicates less than 50% inhibition at 10 μM) | − (“−” indicates less than 50% inhibition at 10 μM) | − (“−” indicates less than 50% inhibition at 10 μM) | − (“−” indicates less than 50% inhibition at 10 μM) | + (“+” indicates greater than 50% inhibition at 10 μM) | A4: inhibition of radioligand binding, human melanocortin (MC4) (Human Melanocortin (MC4)): + (“+” indicates greater than 50% inhibition at 10 μM); A3: inhibition of radioligand binding, human melanocortin (MC3) (Human Melanocortin (MC3)): − (“−” indicates less than 50% inhibition at 10 μM); A2: inhibition of radioligand binding, human κ-opioid (KOP) (Human κ-Opioid (KOP)): − (“−” indicates less than 50% inhibition at 10 μM)
3 | NCCCC(=O)NC1C(OCc2ccc3ccccc3c2)OC(COCc2ccc3ccccc3c2)C(O)C1OCc1ccc2ccccc2c1 (stereo not shown) [compound 393] | − (“−” indicates less than 50% inhibition at 10 μM) | + (“+” indicates greater than 50% inhibition at 10 μM) | − (“−” indicates less than 50% inhibition at 10 μM) | − (“−” indicates less than 50% inhibition at 10 μM) | − (“−” indicates less than 50% inhibition at 10 μM) | + (“+” indicates greater than 50% inhibition at 10 μM) |  |  |  |  |  |  |  |  | A4: inhibition of radioligand binding (Human Melanocortin (MC4); 10 µM): + (“+” indicates greater than 50% inhibition at 10 μM); A7: inhibition of radioligand binding (Human μ-opioid (MOP); 10 µM): − (“−” indicates less than 50% inhibition at 10 μM); A3: inhibition of radioligand binding (Human Melanocortin (MC3); 10 µM): + (“+” indicates greater than 50% inhibition at 10 μM); A6: inhibition of radioligand binding ([2]; 10 µM): − (“−” indicates less than 50% inhibition at 10 μM); A10: inhibition of radioligand binding (Human opioid (ORL1); 10 µM): − (“−” indicates less than 50% inhibition at 10 μM)
4 | N=C(N)NCCC(=O)N[C@H]1C(OCc2ccc(Cl)cc2)O[C@H](COCc2ccc(Cl)cc2)[C@@H](O)[C@@H]1OCc1ccc(Cl)cc1 (stereo partly shown) [compound 527] |  |  |  |  |  |  | − (“−” indicates less than 50% inhibition at 10 μM) | − (“−” indicates less than 50% inhibition at 10 μM) | + (“+” indicates greater than 50% inhibition at 10 μM) | − (“−” indicates less than 50% inhibition at 10 μM) | − (“−” indicates less than 50% inhibition at 10 μM) | + (“+” indicates greater than 50% inhibition at 10 μM) | − (“−” indicates less than 50% inhibition at 10 μM) | + (“+” indicates greater than 50% inhibition at 10 μM) | A4: inhibition of radioligand binding, human melanocortin (MC4) (Human Melanocortin (MC4); 10 µM): + (“+” indicates greater than 50% inhibition at 10 μM); A3: inhibition of radioligand binding, human melanocortin (MC3) (Human Melanocortin (MC3); 10 µM): + (“+” indicates greater than 50% inhibition at 10 μM); A2: inhibition of radioligand binding, human κ-opioid (KOP) (Human κ-Opioid (KOP); 10 µM): + (“+” indicates greater than 50% inhibition at 10 μM)
5 | CO[C@H]1[C@H](O)[C@@H](COCc2ccc3ccccc3c2)OC(OCCc2ccccc2)[C@@H]1NC(=O)CNC(=N)N (stereo partly shown) [compound 113] |  |  |  |  |  |  |  |  |  |  |  |  |  |  | A4 radioligand binding, percentage inhibition (Human Melanocortin (MC4)): + (“+” indicates greater than 50% inhibition at 10 μM); A7 radioligand binding, percentage inhibition (Human μ-opioid (MOP)): − (“−” indicates less than 50% inhibition at 10 μM); A1 radioligand binding, percentage inhibition (Human δ-opioid (DOP)): − (“−” indicates less than 50% inhibition at 10 μM); A8 radioligand binding, percentage inhibition (Human neurokinin (NK1)): + (“+” indicates greater than 50% inhibition at 10 μM); A3 radioligand binding, percentage inhibition (Human Melanocortin (MC3)): − (“−” indicates less than 50% inhibition at 10 μM); A9 radioligand binding, percentage inhibition [1]: − (“−” indicates less than 50% inhibition at 10 μM); A11 radioligand binding, percentage inhibition (Mouse urotensin (mUR2)): − (“−” indicates less than 50% inhibition at 10 μM); A2 radioligand binding, percentage inhibition (Human κ-Opioid (KOP)): − (“−” indicates less than 50% inhibition at 10 μM); A6 radioligand binding, percentage inhibition ([2]; [125I]-S36057): − (“−” indicates less than 50% inhibition at 10 μM); A10 radioligand binding, percentage inhibition (Human opioid (ORL1)): + (“+” indicates greater than 50% inhibition at 10 μM); A5 radioligand binding, percentage inhibition (Human melanocortin (MC5)): + (“+” indicates greater than 50% inhibition at 10 μM)
